Data: patent US11178870B2 (priority 2017, dated 2021)

What was measured:
[1] = tested on: Plasmopara viticola; assay: Test Example G: Downy mildew on vine; assay type: in vivo; settings: 250 ppm sprayed (2.5 ml/pot) before inoculation, assessed 7 to 10 days after inoculation, read-out: control value, Test G (downy mildew on vine)
[2] = tested on: Colletotrichum orbiculare; assay: whole plant or invertebrate; settings: in Cucumis sativus, read-out: control value, Test H (anthracnose on cucumber)
Experimental: Seeds of a test plant (cucumber variety: Sagami Hanjiro) were planted and cultivated until the first leaf appeared. In the test, the compounds of the present invention were dissolved into a dimethyl sulfoxide-methanol mixture solution (volume ratio: 9/1), and the resultant solutions were diluted with well water to a concentration of 250 ppm. The thus-obtained dilutions were sprayed to the test plant (2.5 ml/pot). After the dilutions dried, a conidial suspension (2-4×10^5 conidia/ml) of Colletotrichum orbiculare was inoculated to the plant by spraying. After the inoculation, the plant was kept in a mist chamber at room temperature of 20 to 23° C. for about 24 hours to promote the onset of disease. The disease development was investigated 6 to 10 days after the inoculation, and the effectiveness of the dilutions was evaluated.
Disease development in Test Example described above was evaluated in increments of 0.05 by setting 0 as no incidence of disease and 3 as disease development in a plant of untreated group. In addition, control values were calculated using the following equation based on disease development.
Control value=100 {1−(n/3)}
n=Disease development of each treated groups

[3] = tested on: Blumeria graminis f. sp. hordei; assay: Test Example D: Powdery mildew on barley; assay type: in vivo; settings: Table 7, Test D, read-out: control value, Test D (powdery mildew on barley)
[4] = tested on: Phytophthora infestans; assay: whole plant or invertebrate; assay type: in vivo; settings: in Solanum lycopersicum, read-out: control value, Test F (late blight on tomato)
[5] = tested on: Magnaporthe grisea; assay: whole plant or invertebrate; assay type: in vivo; settings: Pyricularia oryzae, in Oryza sativa, read-out: control value, Test A (blast on rice)
[6] = tested on: Puccinia recondita; assay: Test Example E: Brown rust on wheat; assay type: in vivo; settings: Table 7, Test E, read-out: control value, Test E (brown rust on wheat)
[7] = tested on: Alternaia brassicicola; assay: Test Example C: Alternaria sooty spot on cabbage; assay type: in vivo; settings: Brassica oleracea; Table 7, Test C; read-out: control value, Test C (Alternaria sooty spot on cabbage)
[8] = tested on: Botrytis cinerea; assay: Test Example B: Gray mold on tomato; assay type: in vivo; settings: Table 7, Test B, read-out: control value, Test B (gray mold on tomato)

For CCn1c(-c2c(F)cc(F)cc2F)c(-n2cc(Cl)cn2)cc(C=O)c1=O [compound 265, 5-(4-chloro-1H-pyrazol-1-yl)-1-ethyl-2-oxo-6-(2,4,6-trifluorophenyl)-1,2-dihydropyridin-3-carboaldehyde], the pest or weed control at 250 ppm [1] was less than 50%, the pest or weed control at 250 ppm [2] was less than 50% and the pest or weed control at 250 µg/mL [3] was greater than 50%. It also gave a pest or weed control at 250 µg/mL [4] of less than 50%, a pest or weed control at 250 µg/mL [5] of less than 50% and a pest or weed control at 250 µg/mL [6] greater than 50%. It also gave a pest or weed control at 250 µg/mL [7] greater than 50% and a pest or weed control at 250 µg/mL [8] of less than 50%.

CCn1c(-c2c(F)cc(F)cc2F)c(-n2cc(Cl)cn2)cc(C(F)F)c1=O [compound 266, 5-(4-chloro-H-pyrazol-1-yl)-3-(difluoromethyl)-1-ethyl-6-(2,4,6-trifluorophenyl)pyridin-2(1H)-one] gave a pest or weed control at 250 ppm [1] greater than 50%, a pest or weed control at 250 ppm [2] greater than 50% and a pest or weed control at 250 µg/mL [3] greater than 50%. For the same molecule, the pest or weed control at 250 µg/mL [4] was less than 50%, the pest or weed control at 250 µg/mL [5] was greater than 50% and the pest or weed control at 250 µg/mL [6] was greater than 50%. It also gave a pest or weed control at 250 µg/mL [7] greater than 50% and a pest or weed control at 250 µg/mL [8] greater than 50%.
